Test results as given in PMC6056506, “Single olfactory receptors set odor detection thresholds” (Nature Communications, 2018).

Assays:
Assay in all cases: in vivo wide-field GCaMP3 calcium imaging of identified glomeruli, awake mice
TAAR4 = molecular target: T1, TAAR4 (Mus musculus, UniProt Q5QD15); conditions: agonist; vapour-phase odorant concentration (flow dilution olfactometer), not aqueous; glomerular read-out
T1 construct: full-length native receptor from endogenous locus in olfactory sensory neurons; allele TAAR4-IRES-tauCherry (TAAR4-RFP); receptor itself untagged
T1 sequence (Q5QD15 1-347): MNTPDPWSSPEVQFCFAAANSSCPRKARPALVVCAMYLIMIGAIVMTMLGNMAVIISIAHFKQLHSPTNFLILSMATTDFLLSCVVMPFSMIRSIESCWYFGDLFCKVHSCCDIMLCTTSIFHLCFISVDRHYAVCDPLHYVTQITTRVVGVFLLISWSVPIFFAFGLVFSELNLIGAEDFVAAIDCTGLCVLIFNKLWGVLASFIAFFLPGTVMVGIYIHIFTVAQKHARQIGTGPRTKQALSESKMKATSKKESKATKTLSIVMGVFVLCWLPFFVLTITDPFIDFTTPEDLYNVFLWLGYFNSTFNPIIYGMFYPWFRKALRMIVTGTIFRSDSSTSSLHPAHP

TAAR3 = molecular target: T2, TAAR3 (Mus musculus, UniProt Q5QD16); conditions: agonist, vapour-phase odorant concentration (flow dilution olfactometer), not aqueous, glomerular read-out
T2 construct: full-length native receptor from endogenous locus in olfactory sensory neurons; allele TAAR3-IRES-tauVenus (TAAR3-YFP); receptor itself untagged
T2 sequence (Q5QD16 1-343): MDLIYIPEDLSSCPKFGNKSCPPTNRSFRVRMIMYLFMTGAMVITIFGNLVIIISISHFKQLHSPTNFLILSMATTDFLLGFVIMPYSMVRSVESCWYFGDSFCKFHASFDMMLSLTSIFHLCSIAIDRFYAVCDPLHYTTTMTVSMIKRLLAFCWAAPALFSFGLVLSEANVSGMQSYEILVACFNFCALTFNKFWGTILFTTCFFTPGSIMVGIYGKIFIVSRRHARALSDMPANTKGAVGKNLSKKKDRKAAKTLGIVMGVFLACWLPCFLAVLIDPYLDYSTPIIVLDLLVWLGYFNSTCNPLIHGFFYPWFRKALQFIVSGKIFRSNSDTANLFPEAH

TAAR5 = molecular target: T3, TAAR5 (Mus musculus, UniProt Q5QD14); conditions: agonist; vapour-phase odorant concentration (flow dilution olfactometer), not aqueous; glomerular read-out
T3 construct: full-length native receptor in olfactory sensory neurons; glomeruli identified by response profile and from separate TAAR5-RFP imaging experiments
T3 sequence (Q5QD14 1-337): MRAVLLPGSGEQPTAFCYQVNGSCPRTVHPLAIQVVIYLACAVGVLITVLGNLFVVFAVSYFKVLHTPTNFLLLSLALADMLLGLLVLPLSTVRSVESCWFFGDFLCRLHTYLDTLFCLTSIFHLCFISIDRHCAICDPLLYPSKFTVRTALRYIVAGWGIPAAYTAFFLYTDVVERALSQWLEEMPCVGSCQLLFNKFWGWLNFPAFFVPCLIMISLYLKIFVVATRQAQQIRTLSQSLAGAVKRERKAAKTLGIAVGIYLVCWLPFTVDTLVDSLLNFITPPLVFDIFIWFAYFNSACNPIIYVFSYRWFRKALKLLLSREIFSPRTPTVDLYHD

Row | Compound | EC50 (TAAR4) [nM] | EC50 (TAAR3) [nM] | EC50 (TAAR3; printed CI does not contain the value) [nM] | EC50 (TAAR5) [nM]
1 | CC(C)CCN [isopentylamine] | 9.9 | 0.41 | – | –
2 | NCCc1ccccc1 [phenylethylamine] | – | – | 0.19 | –
3 | CN(C)C [trimethylamine] | 470 | 790 | – | 31
